Here are results for 64 molecules from US8304447B2, “2-acylaminopropoanol-type glucosylceramide synthase inhibitors” (Genzyme Corporation, priority 2007, dated 2012).

The test system of the assay is GM3. Nature of the assay: GM3 Elisa assay. Type of assay: cell-based. Conditions: Table 3 (IC 50 Values); B16-FO cells; read-out: IC50_uM_Mean. The essentials: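 Cellular GM3 ELISA: fixed cells probed with monoclonal anti-GM3 (NeuAc), HRP-conjugated anti-IgM and fluorogenic Quantablu substrate, read at Ex 325/Em 420. Cells were B16-FO, treated 2 days after a 6 h attachment on collagen-coated wells.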
For the molecule `CCCCCCC1=CC([C@H](CN2CCCC2)[C@H](O)c2ccc3c(c2)OCCO3)NN1` (stereo partly shown) [Compound 591], the IC50 is 3 to 10 µM. In the case of `CCCCOc1ccc([C@@H](O)C(CN2CC[C@H](O)C2)NC(=O)CCCCCCCOC)cc1` (stereo partly shown) [Compound 592], the IC50 is at most 0.1 µM.

Regarding `CCCCOc1ccc([C@@H](O)[C@@H](CN2CC[C@H](O)C2)NC(=O)CCCCCOC2CCC2)cc1` [Compound 593], the IC50 lay in the range of 0.1 to 1 µM. With `CCCCCCCC(=O)N[C@H](CN1CCC1)[C@H](O)c1ccc2c(c1)OCCO2` [Compound 594] the figure was 1 to 3 µM; with `CCCCCCCC(=O)N[C@H](CN1C(C)CCCC1C)[C@H](O)c1ccc2c(c1)OCCO2` (stereo partly shown) [Compound 595], 3 to 10 µM.

Consider `CCCCCCCC(=O)N[C@H](CC1CC(OCCC)C1)[C@H](O)c1ccc2c(c1)OCCO2` (stereo partly shown) [Compound 596], for which the IC50 is 3 to 10 µM. With `CCCOC1CC(C[C@@H](NC(=O)CCOc2ccc(OC)cc2)[C@H](O)c2ccc3c(c2)OCCO3)C1` (stereo partly shown) [Compound 597] the figure was 3 to 10 µM. In the case of `COC1CCC(OCCC(=O)N[C@H](CN2C(C)CCCC2C)[C@@H](O)c2ccc3c(c2)OCCO3)CC1` (stereo partly shown) [Compound 598], the IC50 was in the range of 3 to 10 µM. With `COc1ccc(OCCC(=O)N[C@H](CN2CCC2)[C@H](O)c2ccc3c(c2)OCCO3)cc1` [Compound 599] the figure was 1 to 3 µM. With `COc1ccc(C(=O)CCCCCC(=O)N[C@H](CN2CC(O)C2)[C@H](O)c2ccc3c(c2)OCCO3)cc1` [Compound 600] the figure was 1 to 3 µM; with `COc1ccc(OCCC(=O)N[C@H](CN2CC(O)C2)[C@H](O)c2ccc3c(c2)OCCO3)cc1` [Compound 601], 3 to 10 µM; with `COc1ccc(C(=O)CCCCCC(=O)N[C@H](CN2C(C)CCCC2C)[C@H](O)c2ccc3c(c2)OCCO3)cc1` (stereo partly shown) [Compound 602], 3 to 10 µM. The same measure for `COc1ccc(C(=O)CCCCCC(=O)N[C@H](CN2CCC2)[C@H](O)c2ccc3c(c2)OCCO3)cc1` [Compound 603]: 0.1 to 1 µM; for `CCCOC1CN(C[C@@H](NC(=O)CCCCCC(=O)c2ccc(OC)cc2)[C@H](O)c2ccc3c(c2)OCCO3)C1` [Compound 604]: 3 to 10 µM; for `CCCCCCCC(=O)N[C@H](CN1CCCCC1C)[C@H](O)c1ccc2c(c1)OCCO2` (stereo partly shown) [Compound 605]: 3 to 10 µM.

Regarding `COc1ccc(OCCC(=O)N[C@H](CN2CCCCC2C)[C@H](O)c2ccc3c(c2)OCCO3)cc1` (stereo partly shown) [Compound 606], the IC50 was in the range of 3 to 10 µM.

Regarding `COc1ccc(C(=O)CCCCCC(=O)N[C@H](CN2CCCCC2C)[C@H](O)c2ccc3c(c2)OCCO3)cc1` (stereo partly shown) [Compound 607], the IC50 lay within 1 to 3 µM. As to `COc1ccc(OCCC(=O)N[C@H](CN2CCCC(C)C2)[C@H](O)c2ccc3c(c2)OCCO3)cc1` (stereo partly shown) [Compound 608], the IC50 lay within 3 to 10 µM.

Consider `COc1ccc(C(=O)CCCCCC(=O)N[C@H](CN2CCCC(C)C2)[C@H](O)c2ccc3c(c2)OCCO3)cc1` (stereo partly shown) [Compound 609], for which the IC50 lay in the range of 0.1 to 1 µM. In the case of `COc1ccc(OCCC(=O)N[C@H](CN2CCC(C)CC2)[C@H](O)c2ccc3c(c2)OCCO3)cc1` [Compound 610], the IC50 was 3 to 10 µM. With `CCCCCCCC(=O)N[C@H](CN1CCC(C)CC1)[C@H](O)c1ccc2c(c1)OCCO2` [Compound 611] the figure was 3 to 10 µM; with `CC1CCN(C[C@@H](NC(=O)CCCCCC(=O)c2ccccc2)[C@H](O)c2ccc3c(c2)OCCO3)CC1` [Compound 612], 3 to 10 µM. The same measure for `CCCCCCCC(=O)N[C@H](CN1CCCC(C)C1)[C@H](O)c1ccc2c(c1)OCCO2` (stereo partly shown) [Compound 613]: 3 to 10 µM. The same measure for `O=C(N[C@H](CN1CCCC1)[C@H](O)c1ccc2c(c1)OCCO2)C1(C(F)(F)F)CCC1` [Compound 614]: 3 to 10 µM; for `O=C(N[C@H](CN1CCCC1)[C@H](O)c1ccc2c(c1)OCCO2)C(CCc1ccc(F)cc1)C(F)(F)F` (stereo partly shown) [Compound 615]: 0.1 to 1 µM. On to `O=C(N[C@H](CN1CCCC1)[C@H](O)c1ccc2c(c1)OCCO2)C1CCC(C(F)(F)F)CC1` (stereo partly shown) [Compound 616], for which the IC50 lay in the range of 3 to 10 µM. The same measure for `O=C(CCCCOCC(F)(F)F)N[C@H](CN1CCCC1)[C@H](O)c1ccc2c(c1)OCCO2` [Compound 617]: 1 to 3 µM; for `COc1ccc(C(=O)CCCCCC(=O)N[C@H](CN2CC(F)(F)C2)[C@H](O)c2ccc3c(c2)OCCO3)cc1` [Compound 618]: 3 to 10 µM. Consider `O=C(CCCCCC(=O)C1CC1)N[C@H](CN1CCCC1)[C@H](O)c1ccc2c(c1)OCCO2` [Compound 619], for which the IC50 lay in the range of 1 to 3 µM. The same measure for `O=C(CCCCCOCC(F)(F)F)N[C@H](CN1CCCC1)[C@H](O)c1ccc2c(c1)OCCO2` [Compound 620]: 0.1 to 1 µM; for `O=C(CCCCCC(F)(F)C(F)(F)F)N[C@H](CN1CCCC1)[C@H](O)c1ccc2c(c1)OCCO2` [Compound 621]: 1 to 3 µM.

`COc1ccc(OCCC(=O)N[C@H](CN2CC(F)(F)C2)[C@H](O)c2ccc3c(c2)OCCO3)cc1` [Compound 622]: the IC50 fell in the range of 3 to 10 µM. The same measure for `CCCCCCCC(=O)N[C@H](CN1CC(F)(F)C1)[C@H](O)c1ccc2c(c1)OCCO2` [Compound 623]: 3 to 10 µM; for `O=C(CC(F)(F)F)N[C@H](CN1CCCC1)[C@H](O)c1ccc2c(c1)OCCO2` [Compound 624]: 3 to 10 µM; for `COc1ccc(C(=O)CCCCCC(=O)N[C@H](CN2CCC(F)(F)CC2)[C@H](O)c2ccc3c(c2)OCCO3)cc1` [Compound 625]: 3 to 10 µM. With `COc1ccc(C(=O)CCCCCC(=O)N[C@H](CN2CCC(F)CC2)[C@H](O)c2ccc3c(c2)OCCO3)cc1` [Compound 626] the figure was 0.1 to 1 µM; with `COc1ccc(OCCC(=O)N[C@H](CN2CCC(F)(F)CC2)[C@H](O)c2ccc3c(c2)OCCO3)cc1` [Compound 627], 3 to 10 µM; with `O=C(CCCCCC(=O)c1ccc(F)cc1)N[C@H](CN1CCCC1)[C@H](O)c1ccc2c(c1)OCCO2` [Compound 628], at most 0.1 µM. The same measure for `CC(O)(CCCCCC(=O)N[C@H](CN1CCCC1)[C@H](O)c1ccc2c(c1)OCCO2)C1CC1` (stereo partly shown) [Compound 629]: 0.1 to 1 µM. Take `O=C(CCCCCC(F)(F)C1CC1)N[C@H](CN1CCCC1)[C@H](O)c1ccc2c(c1)OCCO2` [Compound 630]: the IC50 was 0.1 to 1 µM.

Turning to `O=C(CCCC#CC1(O)CCCCC1)N[C@H](CN1CCCC1)[C@H](O)c1ccc2c(c1)OCCO2` [Compound 631], the IC50 is 3 to 10 µM.

For the molecule `N#CCCCCCC(=O)N[C@H](CN1CCCC1)[C@H](O)c1ccc2c(c1)OCCO2` [Compound 632], the IC50 lay within 3 to 10 µM.

Turning to `CC(O)(CCCCCC(=O)N[C@H](CN1CCCC1)[C@H](O)c1ccc2c(c1)OCCO2)C1CCCC1` (stereo partly shown) [Compound 633], the IC50 was 0.1 to 1 µM. Regarding `O=C(CCCCCCOCC(F)(F)F)N[C@H](CN1CCCC1)[C@H](O)c1ccc2c(c1)OCCO2` [Compound 634], the IC50 was 0.1 to 1 µM. Regarding `O=C(N[C@H](CN1CCCC1)[C@H](O)c1ccc2c(c1)OCCO2)C1CC[C@@H](C(=O)c2ccc(F)cc2)C1` (stereo partly shown) [Compound 635], the IC50 lay in the range of 3 to 10 µM. The same measure for `O=C(CC12CC3CC(CC(C3)C1)C2)N[C@@H](CN1CCCC1)C(O)c1ccc2c(c1)OCCO2` (stereo partly shown) [Compound 636]: 3 to 10 µM; for `O=C(CCC12CC3CC(CC(C3)C1)C2)N[C@H](CN1CCCC1)[C@H](O)c1ccc2c(c1)OCCO2` [Compound 637]: 0.1 to 1 µM. With `O=C(N[C@H](CN1CCCC1)[C@H](O)c1ccc2c(c1)OCCO2)C1(C(=O)c2ccc(F)cc2)CC1` [Compound 638] the figure was 3 to 10 µM; with `O=C(CCCC(=O)c1ccc(F)cc1)N[C@H](CN1CCCC1)[C@H](O)c1ccc2c(c1)OCCO2` [Compound 639], 0.1 to 1 µM; with `O=C(CCCCC(=O)c1ccc(F)cc1)N[C@H](CN1CCCC1)[C@H](O)c1ccc2c(c1)OCCO2` [Compound 640], 0.1 to 1 µM. The same measure for `CC(O)(CCCCCC(=O)N[C@H](CN1CCCC1)[C@H](O)c1ccc2c(c1)OCCO2)C1CCCCC1` (stereo partly shown) [Compound 641]: at most 0.1 µM; for `O=C(CCCOn1nnc2ccccc21)N[C@H](CN1CCCC1)[C@H](O)c1ccc2c(c1)OCCO2` [Compound 642]: 0.1 to 1 µM. For `O=C(CCCn1cccn1)N[C@H](CN1CCCC1)[C@H](O)c1ccc2c(c1)OCCO2` [Compound 643], the IC50 is 1 to 3 µM. The same measure for `O=C(CCCCCn1cccn1)N[C@H](CN1CCCC1)[C@H](O)c1ccc2c(c1)OCCO2` [Compound 644]: 1 to 3 µM; for `O=C(COC1CCCCC1)N[C@H](CN1CCCC1)[C@H](O)c1ccc2c(c1)OCCO2` [Compound 645]: 3 to 10 µM; for `Cc1noc(CCCCC(=O)N[C@H](CN2CC[C@@H](F)C2)[C@H](O)c2ccc3c(c2)OCCO3)n1` [Compound 646]: 3 to 10 µM. With `O=C(CCCCOCC(F)(F)F)N[C@H](CN1CCCC1)[C@H](O)c1ccc(OCc2ccccc2)cc1` [Compound 647] the figure was 0.1 to 1 µM; with `O=C(CCCCc1nc(C2CC2)no1)N[C@H](CN1CCCC1)[C@H](O)c1ccc2c(c1)OCCO2` [Compound 650], 0.1 to 1 µM. The same measure for `O=C(CCCOn1nnc2ccccc21)N[C@H](CN1CC[C@@H](F)C1)[C@H](O)c1ccc2c(c1)OCCO2` [Compound 651]: 1 to 3 µM; for `Cc1noc(CCCCC(=O)NC(CN2CCCC2)C(O)c2ccc3c(c2)OCCO3)n1` (stereo not shown) [Compound 652]: 3 to 10 µM. For the molecule `O=C(CCCCCC(=O)c1ccc(F)cc1)N[C@H](CN1CC[C@H](O)C1)[C@H](O)c1ccc2c(c1)OCCO2` [Compound 653], the IC50 was at most 0.1 µM. With `O=C(CCCCC(=O)c1ccc(F)cc1)N[C@H](CN1CC[C@H](O)C1)[C@H](O)c1ccc2c(c1)OCCO2` [Compound 654] the figure was 1 to 3 µM. For `COc1ccc(C(=O)CCCCC(=O)N[C@H](CN2CC[C@H](O)C2)[C@H](O)c2ccc3c(c2)OCCO3)cc1` [Compound 655], the IC50 was in the range of 0.1 to 1 µM. The same measure for `O=C(CCCOc1ccc(F)cc1)N[C@H](CN1CC[C@H](O)C1)[C@H](O)c1ccc2c(c1)OCCO2` [Compound 656]: at most 0.1 µM.
